Data from patent US8158799B2, “Hydroxyquinoline derivatives” (Merck Patent Gesellschaft MIT Meschraenkter Haftung, priority 2005, dated 2012).

System: colon carcinoma cell lines
Experiment: Inhibition of the proliferation of tumour cells in vitro (propidium iodide uptake)
Assay type: cell-based
Settings: 72 h, 10,000 cells per well, 3 days incubation at 37° C., propidium iodide/NP40 fluorescence, % of control
From the text: The antiproliferative action can be tested in an HCT116 proliferation assay.
The present experimental description describes the inhibition of tumour cell proliferation by active ingredients.
The cell proliferation is estimated by measurement of the uptake of propidium iodide. […] It is prevented from entering healthy cells. However, if cells have been killed by addition of the detergent NP40, cell membrane and nuclear membrane become permeable. PI attaches itself to the DNA of the cell nuclei and fluoresces in this complex. This fluorescence is measured in the fluorimeter.
commercially available colon carcinoma cell lines
10,000 cells are plated out per well, in a volume of 180 μl, in a 96-hole plate. The outer rows A1-12, 1A-H, 12A-H and H1-12 are only filled with 200 μl of medium or buffer.
The cells are incubated for 24 hours, at 37° C. and 10% CO2 gassing.
In order to test active substances, the corresponding dilutions must first be produced and assigned to the wells. The scheme of a 1:3 dilution indicated here as an example can be varied correspondingly as desired. The scheme described is designed for 4 test substances.
20 μl of medium, solvent dilution or the corresponding dilution of the positive control (IC50) are pipetted into these holes.
Substance groups (column B-G, wells 2-9): 20 μl of substance dilution are pipetted into these holes.
147 μl of medium is introduced into each of the wells of row B of the extra plate in columns 1, 2, 3, 4, and 3 μl of the test substance are added (=300 μM). 100 μl of medium are introduced into rows C-G, columns 1-4. 50 μl are then transferred into row C using a multichannel pipette, mixed 8×, and 50 μl are then transferred from this row into row D. This is continued correspondingly until row G has been reached, in which, after mixing, 50 μl of the dilution are removed and discarded. 100 μl of each desired dilution are now located in the extra plate, and it is now only necessary to transfer 20 μl directly into the test plate.
The plate is incubated at 37° C. and 10% CO2 gassing for 3 days.
The cells multiplying in this time are determined by means of propidium iodide.
20 μl of PI stock solution and 10 μl of NP40 stock solution are required per well. Since each plate has 72 wells charged with PI and with NP40, 1440 μl of the PI stock solution and 720 μl of the NP40 stock solution are required per plate. Taking into account pipetting losses, 1.8 ml of PI stock solution are thus taken and mixed with 0.9 ml of the NP40 stock solution immediately before pipetting in. 30 μl of the PI/NP40 mixture are now pipetted into each of the wells of the plate, each of which contain 200 μl of medium. The plate is subsequently placed in the incubator for 2 hours.
The plate(s) is measured in a fluorescence photometer at a wavelength Ex. 520 nm and Em of 620 nm. The background (=medium+PI) is subtracted from all values, which are subsequently averaged (double values) and expressed or calculated in % of control.
An IC50 (half-maximum action) can now be calculated using a statistics program such as, for example, RS1.
Prepare the desired stock solution at […] in DMSO. Adjust to ten times the concentration to be tested in the cell culture (see above) by dilution in culture medium.

IC50 [nM]	SMILES
90	O=C(Nc1cc(Cl)c2cccnc2c1O)NC(c1ccccc1)c1ccccn1 (stereo not drawn) [Compound A14, 1-(5-chloro-8-hydroxyquinolin-7-yl)-3-(phenylpyridin-2-ylmethyl)urea]
1500	O=C(Nc1ccc(C(F)(F)F)cc1)Nc1ccc2cccnc2c1O [Compound A19, 1-(8-Hydroxyquinolin-7-yl)-3-(4-trifluoromethylphenyl)urea]
210	CCOc1ccccc1NC(=O)Nc1ccc2cccnc2c1O [Compound A20, 1-(2-Ethoxyphenyl)-3-(8-hydroxyquinolin-7-yl)-urea]

Second part, the compound before the results:

SMILES	IC50 [nM]
O=C(CC(c1ccccc1)c1ccccc1)Nc1cc(Cl)c2cccnc2c1O [Compound A1, N-(5-chloro-8-hydroxyquinolin-7-yl)-3,3-diphenylpropionamide]	90
O=C(Nc1cc(Cl)c2cccnc2c1O)C(c1ccccc1)c1ccccc1 [Compound A2, N-(5-chloro-8-hydroxyquinolin-7-yl)-2,2-diphenylacetamide]	2100
O=C(Nc1cc(Cl)c2cccnc2c1O)C(Cc1ccccn1)c1ccccc1 (stereo not drawn) [Compound A3, N-(5-chloro-8-hydroxyquinolin-7-yl)-2-phenyl-3-pyridin-2-ylpropionamide]	1100
